From patent US20250207175A1, “METHOD FOR DETECTING CONTAMINATING CARBOXYLESTERASE ACTIVITY” (Boehringer Ingelheim International GmbH, priority 2022, published 2025)
Entries after “also recorded” stand apart in the source; their conditions may differ.

Tests used:
[1] = system: porcine pancreatic lipase, PPL (crude extract); assay: OPTS assay: enzymatic hydrolysis of OPTS by PPL; type: biochemical
Method: An aqueous solution of commercially purchased porcine pancreatic lipase, PPL, was prepared (Sigma-Aldrich, US; 100-500 Units/mg protein). According to the manufacturer, this powder mainly contains triacylglycerol lipase, but since it is a homogenised powder from freeze-dried porcine pancreas (crude extract), it is likely to further contain other carboxylesterases and lipases. These enzymes hydrolyse fatty acid esters and this extract was therefore selected for functional tests.
To record the reaction kinetics of the substrate OPTS with PPL, an aqueous 10 mg/mL PPL solution was prepared by adding 10 mg PPL to 1 mL H2O. The suspension was vortexed for 2 min and centrifuged at 14,000×g for 5 min before the supernatant was removed.
A reaction mixture of 75 μL AMT buffer (pH=7), 165 μL H2O and 30 μL of an aqueous 10 mg*mL-1 PPL solution was started with the addition of 30 μL of a 250 μM OPTS solution. The increase in fluorescence was recorded over 30 min with 15 s measuring intervals (n=2). As control (blank) served a preparation without PPL (only with H2O). […] The calculated reaction rate is 2.89±0.08*10-5 units (μmol*min-1). […]
Further inhibition of the non-ionic detergent polysorbate 20 (Tween 20) was tested. […] No inhibition was observed until 50 μg/ml at pH 7.0, but higher concentrations reduced the fluorescence signal (FIG. 5B). […]

[2] = derivable from literature; cited from earlier work
[3] = system: contaminating host cell proteins with hydrolase (carboxylesterase) activity in antibody solutions; assay: OPTS assay on antibody preparations (drug substance samples); type: biochemical, CHO K1 or DG44 cells; settings: orlistat 10 μM, PMSF 1 mM, EDTA 10 mM; all 9 antibody samples
From the text: In order to be able to determine the enzymatic activity, a substrate, 1-octanoyloxy-pyrene-3,6,8-trisulfonic acid trisodium salt (OPTS), was chosen. Its hydrolytic product, 1-hydroxypyrene-3,6,8-trisulfonic acid trisodium salt (HPTS), can be detected by fluorescence spectroscopy. The change in the fluorescence signal over time is directly related to the change in the concentration of free fluorophore. The conversion was made possible by setting up a calibration curve with a subsequent linear fit (R^2≥0.99). The experiments of the kinetics measurements with the OPTS/4-MUD substrates assay were performed in duplicates. The reaction mixture without the protein of interest, which served as the respective control, was subtracted from the protein-containing batch. The buffer used for OPTS measurements (hydrophilic substrate) contained 0.3 M HOAc, 0.3 M MES, 0.6 M TRIS and 0.6 M NaCl (4×AMT buffer; acetate, MES, TRIS). For 4-MUD substrate measurements (lipophilic substrate) 0.04 M CHAPS was added in addition. […] All measurements were carried out in multiwell plates with a preparation volume of 300 μL (75 μL 4×AMT buffer, 30 μL substrate, 75 μL enzyme-containing solution, x μL additive, 300 μL ad. H2O) Unless otherwise stated, all fluorescence spectroscopic measurements were performed using 96-well, clear-bottom, non-binding plates (Greiner, Austria) on a SpectraMax M3 PlateReader (Molecular Device, USA) and recorded using SoftMax Pro 7.0.3 software (Molecular Device, USA). […] For evaluation, the detected fluorescence signal for a reaction mix without protein of interest (control) was subtracted from the reaction mix with protein of interest (e.g. DS). Hydrolysis of the substrate has been measured by detecting the fluorescence intensity of the released chromophore (4-MU or HPTS) immediately following mixing in real-time for a few minutes up to 5 hours depending on fluorescence intensity. The changes in the fluorescence signal over time were subsequently converted to hydrolytic activity using previously established calibration curves with a linear fit (R^2≥0.99). […]

[4] = system: contaminating host cell proteins with hydrolytic (lipase) activity in antibody solutions; assay: 4-MUD assay on antibody preparations (drug substance samples); type: biochemical, CHO K1 or DG44 cells; settings: all 9 antibody samples; for effect of inhibitor on hydrolytic activity in the 9 antibody samples, 4-MUD assay: orlistat 10 μM, PMSF 1 mM, EDTA 10 mM
From the text: In order to be able to determine the enzymatic activity, a substrate, 1-octanoyloxy-pyrene-3,6,8-trisulfonic acid trisodium salt (OPTS), was chosen. Its hydrolytic product, 1-hydroxypyrene-3,6,8-trisulfonic acid trisodium salt (HPTS), can be detected by fluorescence spectroscopy. The change in the fluorescence signal over time is directly related to the change in the concentration of free fluorophore. The conversion was made possible by setting up a calibration curve with a subsequent linear fit (R^2≥0.99). The experiments of the kinetics measurements with the OPTS/4-MUD substrates assay were performed in duplicates. The reaction mixture without the protein of interest, which served as the respective control, was subtracted from the protein-containing batch. The buffer used for OPTS measurements (hydrophilic substrate) contained 0.3 M HOAc, 0.3 M MES, 0.6 M TRIS and 0.6 M NaCl (4×AMT buffer; acetate, MES, TRIS). For 4-MUD substrate measurements (lipophilic substrate) 0.04 M CHAPS was added in addition. The buffer (AMT) was prepared in four-fold concentration (4×AMT) and was added at 25% (v/v) to the reaction mix. All measurements were carried out in multiwell plates with a preparation volume of 300 μL (75 μL 4×AMT buffer, 30 μL substrate, 75 μL enzyme-containing solution, x μL additive, 300 μL ad. H2O) Unless otherwise stated, all fluorescence spectroscopic measurements were performed using 96-well, clear-bottom, non-binding plates (Greiner, Austria) on a SpectraMax M3 PlateReader (Molecular Device, USA) and recorded using SoftMax Pro 7.0.3 software (Molecular Device, USA). The OPTS assay measurements were typically taken at 25° C., λex=403 nm and λem=512 nm and the 4-MUD assay measurements were taken at 25° C., λex=330 nm and λem=450 nm. For evaluation, the detected fluorescence signal for a reaction mix without protein of interest (control) was subtracted from the reaction mix with protein of interest (e.g. DS). Hydrolysis of the substrate has been measured by detecting the fluorescence intensity of the released chromophore (4-MU or HPTS) immediately following mixing in real-time for a few minutes up to 5 hours depending on fluorescence intensity. The changes in the fluorescence signal over time were subsequently converted to hydrolytic activity using previously established calibration curves with a linear fit (R^2≥0.99).
The target concentration of OPTS was 25 μM and the target concentration of 4-MUD was 30 μM. […]
(§1) To generate pH profiles of the protein solutions, kinetic measurements were carried out as described above at the indicated pH value. The added AMT buffer was adjusted to the pH indicated in a range of pH 4-8 (0.5 steps) and the kinetics were recorded for each pH value.

[5] = system: purified commercially available lipase (lysosomal lipase); assay: 4-MUD assay on a purified commercially available lipase; type: biochemical; settings: 10 μM orlistat, 1 mM PMSF, 10 mM EDTA; pH 5.5
Method: The target concentration of OPTS was 25 μM and the target concentration of 4-MUD was 30 μM. For preparing a master mix, 4×AMT buffer was mixed with the appropriate volume of H2O in a Falcon tube. The dialysed antibody (Ab) preparation samples (drug substance) or control solutions (75 μl) were transferred to 96 well plates. Optional inhibitors (10 μM orlistat, 1 mM PMSF and 10 mM EDTA) were added to the master mix comprising 4×AMT buffer and water and substrate (3 μl/sample 3 mM 4-MUD in DMSO or […] 250 μM OPTS in H2O, aliquoted and frozen). The 4-MUD substrate was stored at a concentrated stock solution comprising 3 mM 4-methylumbelliferyl decanoate (4-MUD; FM25973, Carbosynth) in DMSO resulting in a 100× stock solution for use comprising […] in DMSO. The 250 μM OPTS stock solution was prepared in H2O, aliquoted and frozen until use. […] The reaction was then started by adding the master mix (reaction solution) to the protein solution or control solution, respectively. The measurement was started immediately. The measuring time was 30 min and the measuring intervals 15 s. Stock solutions of the inhibitors were used as follows: 300 μM orlistat (Sigma-Aldrich, USA) in DMSO, 100 mM PMSF (Roth, Germany) in isopropanol and 500 mM EDTA (Sigma-Aldrich, USA) in H2O.
as §1
Further, a purified commercially available lipase with unknown substrate specificity was analysed using the 4-MUD and OPTS assay. First, hydrolysis of both soluble (OPTS) and hydrophobic (4-MUD) carboxyl esters, as well as the influence of orlistat, PMSF and EDTA on the hydrolytic activity of the lipase were investigated.
Furthermore, the lipase was tested for its pH dependence in the OPTS and 4-MUD substrate assays. For this purpose, the hydrolytic activity was examined at pH=4-8.

Structure (SMILES)	CMC [2]	effect of inhibitor on hydrolytic activity in the 9 antibody samples, OPTS assay [3]	effect of inhibitor on hydrolytic activity in the 9 antibody samples, 4-MUD assay [4]	influence of inhibitors on hydrolytic activity of the lipase, 4-MUD substrate [5]	other results
C[C@H](CCC(=O)NCCC[N+](C)(C)CCCS(=O)(=O)[O-])[C@H]1CC[C@H]2[C@@H]3[C@H](O)C[C@@H]4C[C@H](O)CC[C@]4(C)[C@H]3C[C@H](O)[C@]12C [CHAPS, 3-[(3-cholamidopropyl)dimethylammonio]-1-propanesulfonate]	about 6 mM	–	–	–	activity in the presence of 10 mM CHAPS ([1]; 1 mg*mL-1 PPL, 25 μM OPTS, AMT pH 7, 10 mM CHAPS): 6.16*10^−7 units
C[C@H](CCC(=O)NCCC[N+](C)(C)CC(O)CS(=O)(=O)[O-])[C@H]1CC[C@H]2[C@@H]3[C@H](O)C[C@@H]4C[C@H](O)CC[C@]4(C)[C@H]3C[C@H](O)[C@]12C (stereo partly drawn) [CHAPSO, 3-([3-Cholamidopropyl)dimethylammonio]-2-hydroxy-1-propanesulfonate]	about 8 mM	–	–	–	–
O=C(O)CN(CCN(CC(=O)O)CC(=O)O)CC(=O)O [EDTA]	–	Neither orlistat, nor PMSF or EDTA significantly reduced; also recorded: no inhibition	hardly any inhibition; also recorded: no inhibition	only minor effects	–
O=S(=O)(F)Cc1ccccc1 [PMSF]	–	Neither orlistat, nor PMSF or EDTA significantly reduced	sight inhibition	only minor effects	–
CCCCCCCCCCCC(=O)OCCOCCOCCOCCOCCOCCOCCOCCOCCOCCOCCOCCOCCOCCOCCOCCOCCOCCOCCOCCOCC(OCCOCCOCCOCCOCCOCCOCCOCCOCCOCCOCCOCCOCCOCCOCCOCCOCCOCCOCCOCCO)C1OCC(OCCOCCOCCOCCOCCOCCOCCOCCOCCOCCOCCOCCOCCOCCOCCOCCOCCOCCOCCOCCO)C1OCCOCCOCCOCCOCCOCCOCCOCCOCCOCCOCCOCCOCCOCCOCCOCCOCCOCCOCCOCCO (stereo not drawn) [Polysorbate 20, polyoxyethylene (20) sorbitan monolaurate]	–	–	–	–	concentration until which no inhibition was observed ([1]; PPL, pH 7.0, target concentrations 200 μg/mL to 0.098 μg/mL tested): ≤ 50 µg/mL
CCCCCCCCCCCC[N+](C)(C)CCCS(=O)(=O)[O-] [Zwittergent 3-12, n-Dodecyl-N,N-dimethyl-3-ammonio-1-propanesulfonate]	2 to 4 mM	–	–	–	–
CCCCCCCCCCC[C@@H](C[C@@H]1OC(=O)[C@H]1CCCCCC)OC(=O)[C@H](CC(C)C)NC=O [orlistat]	–	Neither orlistat, nor PMSF or EDTA significantly reduced	pronounced inhibition; also recorded: strong inhibition	almost completely inhibited	residual activities with orlistat ([4]; 10 μM orlistat, % of hydrolysis activity without inhibitor): 18-21%
